What was measured:
U937 cells = assay: Cell growth inhibitory effect, U937 cells (WST-8, 72 hours); conditions: Homo sapiens, U-937, 72 h, read-out: U937 cells (IC50 value: μM)
K562 cells = assay: Cell growth inhibitory effect, K562 cells (WST-8, 72 hours); conditions: for IC50: Homo sapiens, K562, 72 h, read-out: K562 cells (IC50 value: μM); for Ratio (U937 cells/K562 cells): ratio of IC50 values U937 cells/K562 cells
E255K mutant BCR-ABL = biological target: T1, E255K mutant BCR-ABL (Homo sapiens, UniProt P00519, E255K); assay: Self-phosphorylation inhibitory effect on mutant (E255K) BCR-ABL in transfected 293T cells (Western blot, PY99); format: cell-based; conditions: 2 hours
T1 construct: expressed in transfected cells; host or cells: 293T cells (ATCC), Lipofectamine transfection; the other entry of the earlier key: BCR (P11274, Breakpoint cluster region protein)
Protocol: The cells were seeded in an amount of 5 ml in a Poly-L-Lysin coated 6 cm dish so as to give 1.2×10^6 cells/well. […] Using a Lipofectamine reagent (manufactured by Invitrogen), 2 μg of E255K mutant bcr-abl gene expression vector was transfected into the cell. […] The dish was incubated in a CO2 incubator for 2 hours. After treatment with trypsin, the cells were collected into a 15 ml centrifuge tube. The tube was centrifuged at 1000 rpm at room temperature for one minute. After removal of the medium, 50 μl of a cell lysis solution was added. The cells were subjected to cytolysis with a mixer. The tube was left to stand at 4° C. for 15 minutes and transferred to 1.5 ml tube. The tube was centrifuged at 12,000 rpm at 4° C. for 15 minutes. The cell lysate was collected into another 1.5 ml tube. The concentration of protein was measured according to BCA method. The samples of cell lysate containing […] of protein was analyzed by SDS-PAGE polyacrylamide. After electrophoresis, the protein was transferred onto a nylon filter (Hybond-P) with wet method at 4° C. overnight. The nylon filter was reacted in 10 ml of PBS/0.1% Tween-20 containing 0.2 μg/ml anti-phosphorylation tyrosin kinase antibody (PY99) (manufactured by Toyobo) at room temperature for one hour. The nylon filter was washed with PBS three times and then reacted 10 ml of PBS/0.1% Tween-20 containing 0.4 μg/ml Anti-mouse IgG AP-conjugated (manufactured by Cell Signaling) at room temperature for one hour. After the nylon filter was washed with PBS four times, self-phosphorylation of p210 BCR-ABL was detected with alkaline phosphatase color developing reagent.
The results are shown as follows: +++: almost perfectly inhibition of phosphorylation; ++: around half of inhibition; +: week inhibition; and −: no inhibition.

T1 sequence (P00519 28-1130 E255K limits assumed): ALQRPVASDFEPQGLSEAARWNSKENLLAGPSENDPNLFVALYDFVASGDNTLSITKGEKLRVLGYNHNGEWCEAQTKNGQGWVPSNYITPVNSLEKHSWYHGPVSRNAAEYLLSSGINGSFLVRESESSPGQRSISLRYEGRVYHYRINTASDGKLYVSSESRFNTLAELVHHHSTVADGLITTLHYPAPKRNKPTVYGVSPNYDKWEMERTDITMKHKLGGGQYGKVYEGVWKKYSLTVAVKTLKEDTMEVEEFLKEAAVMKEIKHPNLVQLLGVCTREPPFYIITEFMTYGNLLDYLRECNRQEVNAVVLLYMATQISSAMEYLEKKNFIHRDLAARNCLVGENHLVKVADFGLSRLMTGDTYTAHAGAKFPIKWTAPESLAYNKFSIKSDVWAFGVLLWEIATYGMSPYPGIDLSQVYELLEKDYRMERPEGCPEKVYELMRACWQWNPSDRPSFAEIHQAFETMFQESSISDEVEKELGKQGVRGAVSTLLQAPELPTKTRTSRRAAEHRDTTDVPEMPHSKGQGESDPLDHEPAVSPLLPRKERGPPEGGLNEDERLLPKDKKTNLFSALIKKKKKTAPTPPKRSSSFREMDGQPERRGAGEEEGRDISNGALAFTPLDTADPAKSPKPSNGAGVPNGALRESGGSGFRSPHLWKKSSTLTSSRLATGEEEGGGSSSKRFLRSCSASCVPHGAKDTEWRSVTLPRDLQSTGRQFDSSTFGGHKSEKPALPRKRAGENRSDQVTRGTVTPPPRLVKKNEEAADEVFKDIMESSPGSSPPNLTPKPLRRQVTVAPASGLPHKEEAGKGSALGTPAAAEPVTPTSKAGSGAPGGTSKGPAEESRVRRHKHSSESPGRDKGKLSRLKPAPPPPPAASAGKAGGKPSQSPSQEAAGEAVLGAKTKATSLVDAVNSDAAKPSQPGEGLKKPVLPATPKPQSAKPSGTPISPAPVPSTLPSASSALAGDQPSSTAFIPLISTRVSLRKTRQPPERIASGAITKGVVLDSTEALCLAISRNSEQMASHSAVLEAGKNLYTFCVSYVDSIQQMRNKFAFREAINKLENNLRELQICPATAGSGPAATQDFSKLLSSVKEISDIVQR

Row | IC50 (U937 cells) [µM] | IC50 (K562 cells) [µM] | Self-phosphorylation inhibitory effect on E255K mutant BCR-ABL (E255K mutant BCR-ABL; 0.1 μM) | Self-phosphorylation inhibitory effect on E255K mutant BCR-ABL (E255K mutant BCR-ABL; 0.3 μM) | Self-phosphorylation inhibitory effect on E255K mutant BCR-ABL (E255K mutant BCR-ABL; 1 μM) | Self-phosphorylation inhibitory effect on E255K mutant BCR-ABL (E255K mutant BCR-ABL; 3 μM) | Self-phosphorylation inhibitory effect on E255K mutant BCR-ABL (E255K mutant BCR-ABL; 10 μM) | melting point | Structure (SMILES) | Ratio (U937 cells/K562 cells) (K562 cells)
1 | 5.01 | 0.0046 |  |  | − | + | +++ | 193 to 194 °C (dec.) | Cc1ccc(NC(=O)c2ccc(CN3CCN(C)CC3)c(Cl)c2)cc1Nc1nccc(-c2cccnc2)n1 [Example 3, 3-chloro-4-(4-methylpiperazin-1-ylmethyl)-N-{4-methyl-3-[4-(3-pyridyl)pyrimidin-2-ylamino]phenyl}benzamide] | 1089.1
2 | 1.86 | 0.0017 |  |  | + | ++ | +++ | 194 to 195 °C (dec.) | Cc1ccc(NC(=O)c2ccc(CN3CCN(C)CC3)c(Br)c2)cc1Nc1nccc(-c2cncc(Br)c2)n1 [Example 9, 3-bromo-4-(4-methylpiperazin-1-ylmethyl)-N-{3-[4-(5-bromopyridin-3-yl)pyrimidin-2-ylamino]-4-methylphenyl}benzamide] | 1094.1
3 | 7.29 | 0.0015 |  |  |  |  |  | 227 to 229 °C | Cc1ccc(NC(=O)c2cc(Br)c(CN3CCN(C)CC3)c(Br)c2)cc1Nc1nccc(-c2cccnc2)n1 [Example 24, 3,5-dibromo-4-(4-methylpiperazin-1-ylmethyl)-N-{4-methyl-3-[4-(3-pyridyl)pyrimidin-2-ylamino]phenyl}benzamide] | 4860.0
4 | 3.34 | 0.0023 |  |  | + | ++ | +++ | 199 to 200 °C (dec.) | Cc1ccc(NC(=O)c2ccc(CN3CCN(C)CC3)c(I)c2)cc1Nc1nccc(-c2cccnc2)n1 [Example 2, 3-iodo-4-(4-methylpiperazin-1-ylmethyl)-N-{4-methyl-3-[4-(3-pyridyl)pyrimidin-2-ylamino]phenyl}benzamide] | 1452.2
5 | 5.22 | 0.0075 |  |  |  |  |  | 156 to 157 °C | Cc1ccc(NC(=O)c2ccc(CN3CCCN(C)CC3)c(Br)c2)cc1Nc1nccc(-c2cccnc2)n1 [Example 35, 3-bromo-4-(4-methyl-hexahydro-1H-1,4-diazepin-1-ylmethyl)-N-{4-methyl-3-[4-(3-pyridyl)pyrimidin-2-ylamino]phenyl}benzamide] | 696.0

The next lines start with the molecule.

Row | Structure (SMILES) | IC50 (U937 cells) [µM] | IC50 (K562 cells) [µM] | Self-phosphorylation inhibitory effect on E255K mutant BCR-ABL (E255K mutant BCR-ABL; 0.1 μM) | Self-phosphorylation inhibitory effect on E255K mutant BCR-ABL (E255K mutant BCR-ABL; 0.3 μM) | Self-phosphorylation inhibitory effect on E255K mutant BCR-ABL (E255K mutant BCR-ABL; 1 μM) | Self-phosphorylation inhibitory effect on E255K mutant BCR-ABL (E255K mutant BCR-ABL; 3 μM) | Self-phosphorylation inhibitory effect on E255K mutant BCR-ABL (E255K mutant BCR-ABL; 10 μM) | melting point | Ratio (U937 cells/K562 cells) (K562 cells)
6 | Cc1ccc(NC(=O)c2ccc(CN3CCN(C)CC3)c(Br)c2)cc1Nc1nccc(-c2cncnc2)n1 [Example 13, 3-bromo-4-(4-methylpiperazin-1-ylmethyl)-N-{4-methyl-3-[4-(5-pyrimidinyl)pyrimidin-2-ylamino]phenyl}benzamide] | 6.2 | 0.0012 | − | + | ++ | +++ | +++ | 238 to 240 °C (dec.) | 5166.7
7 | Cc1ccc(NC(=O)c2ccc(CN3CCN(C)CC3)c(Br)c2)cc1Nc1nccc(-c2cnccn2)n1 [Example 7, 3-bromo-4-(4-methylpiperazin-1-ylmethyl)-N-{4-methyl-3-[4-(2-pyrazinyl)pyrimidin-2-ylamino]phenyl}benzamide] | 6.51 | 0.0054 |  |  | − | ++ | +++ | 213 to 214 °C (dec.) | 1205.6
8 | Cc1ccc(NC(=O)c2ccc(CN3CCN(C)CC3)c(C(F)(F)F)c2)cc1Nc1nccc(-c2cncc(Br)c2)n1 [Example 10, 4-(4-methylpiperazin-1-ylmethyl)-3-trifluoromethyl-N-{3-[4-(5-bromopyridin-3-yl)pyrimidin-2-ylamino]-4-methylphenyl}benzamide] | 3.27 | 0.0014 | − | − | ++ | +++ | +++ | 171 to 173 °C (dec.) | 2335.7
9 | Cc1ccc(NC(=O)c2ccc(CN3CCN(C)CC3)c(Br)c2)cc1Nc1cc(-c2cncnc2)ccn1 [Example 15, 3-bromo-4-(4-methylpiperazin-1-ylmethyl)-N-{4-methyl-3-[4-(5-pyrimidinyl)pyridin-2-ylamino]phenyl}benzamide] | 9.1 | 0.0048 |  |  |  |  |  | 244 to 246 °C (dec.) | 1895.8
10 | COc1cc(C(=O)Nc2ccc(C)c(Nc3nccc(-c4cccnc4)n3)c2)ccc1CN1CCN(C)CC1 [Example 23, 3-methoxy-4-(4-methylpiperazin-1-ylmethyl)-N-{4-methyl-3-[4-(3-pyridyl)pyrimidin-2-ylamino]phenyl}benzamide] | > 10 | 0.0094 |  |  |  |  |  | 171 to 172 °C (dec.) | >1063.8
11 | CCN(CC)Cc1ccc(C(=O)Nc2ccc(C)c(Nc3nccc(-c4cccnc4)n3)c2)cc1Br [Example 30, 3-bromo-4-(N,N-diethylaminomethyl)-N-{4-methyl-3-[4-(3-pyridyl)pyrimidin-2-ylamino]phenyl}benzamide] | > 10 | 0.022 |  |  |  |  |  | 172 to 173 °C | >454.5
12 | Cc1ccc(NC(=O)c2ccc(CN3CCN(C)CC3)c(F)c2)cc1Nc1nccc(-c2cccnc2)n1 [Example 4, 3-fluoro-4-(4-methylpiperazin-1-ylmethyl)-N-{4-methyl-3-[4-(3-pyridyl)pyrimidin-2-ylamino]phenyl}benzamide] | 12.4 | 0.033 |  |  |  |  |  | 197 to 199 °C (dec.) | 
13 | Cc1ccc(NC(=O)c2ccc(CN3CCN(C)CC3)c(C#N)c2)cc1Nc1nccc(-c2cccnc2)n1 [Example 40, 3-cyano-4-(4-methylpiperazin-1-ylmethyl)-N-{4-methyl-3-[4-(3-pyridyl)pyrimidin-2-ylamino]phenyl}benzamide] | 4.2 | 0.0054 |  |  |  |  |  | 191 to 193 °C (dec.) | 777.8

Source: patent US7494997B2, “Amide derivative” (Nippon Shinyaku Co., Ltd., priority 2002, dated 2009)
